Reference: patent US8415501B2, “Methods and compositions for making and using polymorphs of cinacalcet” (Amgen, Inc., priority 2006, dated 2013)

Key:
[1] = solid-form stability of cinacalcet HCl polymorphs
Text: The present invention describes an additional third form of the compound. […] The present invention is directed to a novel polymorph Form III.

cytochrome P450 2D6 = cytochrome P450 2D6 (Homo sapiens, UniProt P10635); settings: cited from earlier work
[2] = test system: patients with parathyroid carcinoma; settings: cited from earlier work

Chain of cytochrome P450 2D6 (P10635 whole entry): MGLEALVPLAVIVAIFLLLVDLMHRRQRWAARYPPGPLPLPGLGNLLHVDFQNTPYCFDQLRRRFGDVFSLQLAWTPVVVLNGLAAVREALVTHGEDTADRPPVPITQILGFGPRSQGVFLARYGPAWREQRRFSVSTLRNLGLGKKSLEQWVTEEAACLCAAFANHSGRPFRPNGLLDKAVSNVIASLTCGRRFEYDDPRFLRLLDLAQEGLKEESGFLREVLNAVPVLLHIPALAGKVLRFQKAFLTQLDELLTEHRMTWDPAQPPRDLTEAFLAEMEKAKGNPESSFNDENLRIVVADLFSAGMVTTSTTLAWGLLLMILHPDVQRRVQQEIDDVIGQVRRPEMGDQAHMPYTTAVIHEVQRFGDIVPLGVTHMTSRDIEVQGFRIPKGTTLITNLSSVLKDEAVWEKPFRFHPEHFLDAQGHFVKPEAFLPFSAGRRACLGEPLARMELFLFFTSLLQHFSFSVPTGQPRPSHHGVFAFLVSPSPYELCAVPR

C[C@@H](NCCCc1cccc(C(F)(F)F)c1)c1cccc2ccccc12.Cl [Form III, N-[1-(R)-(−)-(1-naphthyl)ethyl]-3-[3-(trifluoromethyl)phenyl]-1-aminopropane hydrochloride]
thermodynamic stability of the crystalline form ([1]; solvent systems and crystallization methods, XRPD analysis): metastable form

C[C@@H](NCCCc1cccc(C(F)(F)F)c1)c1cccc2ccccc12.Cl [Form II]
stability of the crystalline form ([1]; room temperature): unstable at room temperature

C[C@@H](NCCCc1cccc(C(F)(F)F)c1)c1cccc2ccccc12.Cl [Sensipar®, N-[1-(R)-(−)-(1-naphthyl)ethyl]-3-[3-(trifluoromethyl)phenyl]-1-aminopropane hydrochloride]
metabolizing enzyme (cytochrome P450 2D6): metabolized by cytochrome P450 2D6
effect on calcium levels [2]: reduce high levels of calcium
